According to ChEMBL document CHEMBL1123890, “Combined analgesic/neuroleptic activity in N-butyrophenone prodine-like compounds” (J Med Chem, 1987):
Active and inactive are the calls of the source. No cut-off for these calls is given here.

Key:
D(1A) dopamine receptor = D(1A) dopamine receptor (Rattus norvegicus, UniProt P18901); assay: Inhibitory concentration against rat striatal dopamine (D1) sensitive adenylate cyclase activity; assay type: functional
Mus musculus [1] = assay: In vivo analgesic activity in mice after subcutaneous administration by hot plate assay method.; assay type: functional; conditions: sc
Opioid receptor = Opioid receptor (Rattus norvegicus, UniProt P33533+P34975+P33535); assay: Ability to inhibit the specific binding of [3H]- dihydromorphine to opiate receptors in rat brain membrane preparation by 50%; assay type: cell membranes
Rattus norvegicus = species: Rattus norvegicus; assay: The dose required to reduce the number of apomorphine induced rotation by 50% in rats with monolateral lesion of nigrostriatal tracts; assay type: functional; conditions: Nigrostriatal tract
Mus musculus [2] = assay: In vivo analgesic activity in mice after subcutaneous administration by hot plate assay method; assay type: functional; conditions: sc
D(2) dopamine receptor = D(2) dopamine receptor (Rattus norvegicus, UniProt P61169); assay: Ability to inhibit the specific binding of [3H]- spiroperidol to Dopamine receptor D2 in rat striatal membrane preparation by 50%; assay type: cell membranes, Striatum
Sequence of D(2) dopamine receptor (P61169 whole entry): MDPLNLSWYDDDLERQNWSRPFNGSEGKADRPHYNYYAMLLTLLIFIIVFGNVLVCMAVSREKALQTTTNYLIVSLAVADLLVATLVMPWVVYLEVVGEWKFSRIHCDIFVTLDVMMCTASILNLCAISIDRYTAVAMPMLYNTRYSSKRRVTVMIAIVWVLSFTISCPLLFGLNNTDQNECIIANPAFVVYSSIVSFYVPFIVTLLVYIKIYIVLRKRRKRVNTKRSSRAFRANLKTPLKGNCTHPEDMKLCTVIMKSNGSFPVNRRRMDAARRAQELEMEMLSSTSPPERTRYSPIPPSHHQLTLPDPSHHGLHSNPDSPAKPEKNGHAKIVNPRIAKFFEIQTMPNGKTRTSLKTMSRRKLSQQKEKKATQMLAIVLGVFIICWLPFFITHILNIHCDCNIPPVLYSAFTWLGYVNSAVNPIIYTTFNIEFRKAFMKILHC

Mus musculus [3] = assay: In vivo analgesic activity in mice after subcutaneous administration by hot plate assay method; inactive at 25 mg; assay type: functional, organism-based

Sequence of D(1A) dopamine receptor (P18901 whole entry): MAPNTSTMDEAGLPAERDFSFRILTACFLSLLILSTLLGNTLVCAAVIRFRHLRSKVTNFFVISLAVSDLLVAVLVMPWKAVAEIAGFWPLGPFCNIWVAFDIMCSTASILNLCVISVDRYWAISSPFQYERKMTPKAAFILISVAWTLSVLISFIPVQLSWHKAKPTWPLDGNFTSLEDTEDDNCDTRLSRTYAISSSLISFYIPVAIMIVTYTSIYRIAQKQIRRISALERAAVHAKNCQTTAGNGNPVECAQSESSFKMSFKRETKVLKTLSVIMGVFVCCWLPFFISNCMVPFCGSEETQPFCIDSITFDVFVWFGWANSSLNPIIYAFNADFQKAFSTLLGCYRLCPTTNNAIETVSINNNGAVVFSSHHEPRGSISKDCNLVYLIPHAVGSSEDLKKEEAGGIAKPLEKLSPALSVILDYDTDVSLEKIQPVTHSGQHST

Compound	IC50 (D(1A) dopamine receptor) [nM]	ED50 (Mus musculus [1]) [mg/kg]	IC50 (Opioid receptor) [nM]	ED50 (Rattus norvegicus) [mg/kg]	ED50 (Mus musculus [2]) [mg/kg]	IC50 (D(2) dopamine receptor) [nM]	ED50 (Mus musculus [3])
C[C@H]1CN(CCCC(=O)c2ccc(F)cc2)CCC1(O)c1ccccc1 (some centres not stated)	1650	> 5	> 10000	1.54	–	–	–
CCC(=O)OC1(c2ccccc2)CCN(CCCC(=O)c2ccc(F)cc2)C[C@@H]1C (some centres not stated)	2600	–	3.33	0.22	0.23	33.5	–
CCC(=O)OC1(c2ccccc2)CCN(CCCC(=O)c2ccc(F)cc2)C[C@H]1C (some centres not stated)	3200	–	8.67	1.59	0.65	46.9	–
O=C(CCCN1CCC(c2ccccc2)CC1)c1ccc(F)cc1	7500	5	> 10000	1.31	–	69.9	–
CCC(=O)OC1(c2ccccc2)CCN(CCCC(=O)c2ccc(F)cc2)CC1	2400	–	2.96	0.2	0.32	28.8	–
CN1CC[C@]23c4c5ccc(O)c4O[C@H]2[C@@H](O)C=C[C@H]3[C@H]1C5.Cl [MORPHINE HYDROCHLORIDE]	–	1.2	–	–	–	–	–
C[C@@H]1CN(CCCC(=O)c2ccc(F)cc2)CCC1(O)c1ccccc1 (some centres not stated)	2650	> 5	> 10000	0.93	–	–	–
O=C(CCCN1CCC(O)CC1)c1ccc(F)cc1	–	–	5500	5.84	–	> 5000	inactive
CN1CCc2cccc3c2[C@H]1Cc1ccc(O)c(O)c1-3 [APOMORPHINE]	–	–	302	–	–	–	–
O=C(CCCN1CCC(O)(c2ccccc2)CC1)c1ccc(F)cc1	2800	> 5	3215	0.35	–	47.1	–
CCC(=O)OC1CCN(CCCC(=O)c2ccc(F)cc2)CC1	–	–	598	4.82	–	> 50000	–
